pEC50, pIC50: −log10 of the molar value. In brackets after ≈: the same amount, converted by molar mass. Activity calls are given as the source filed them. The calls are words filed in the database; no cut-off is given here.
Columns and labels:
Mus musculus [1] = assay: Antidiabetic activity in diet-induced obese mouse assessed as serum glucose level at 100 mg/kg, po for 4 weeks (reference value: 316.5 +/-13.2 mg/dL); type: functional
[2] = target: T1, Bile acid receptor (Homo sapiens) (UniProt Q96RI1); assay: Agonist activity at human FXR LBD iexpressed in monkey CV-1 cells assessed as transactivation of luciferase reporter gene expression relative to GW 4064; type: functional, cell-based; parameters: concentration or dose not given beside the values
T1 sequence (whole entry): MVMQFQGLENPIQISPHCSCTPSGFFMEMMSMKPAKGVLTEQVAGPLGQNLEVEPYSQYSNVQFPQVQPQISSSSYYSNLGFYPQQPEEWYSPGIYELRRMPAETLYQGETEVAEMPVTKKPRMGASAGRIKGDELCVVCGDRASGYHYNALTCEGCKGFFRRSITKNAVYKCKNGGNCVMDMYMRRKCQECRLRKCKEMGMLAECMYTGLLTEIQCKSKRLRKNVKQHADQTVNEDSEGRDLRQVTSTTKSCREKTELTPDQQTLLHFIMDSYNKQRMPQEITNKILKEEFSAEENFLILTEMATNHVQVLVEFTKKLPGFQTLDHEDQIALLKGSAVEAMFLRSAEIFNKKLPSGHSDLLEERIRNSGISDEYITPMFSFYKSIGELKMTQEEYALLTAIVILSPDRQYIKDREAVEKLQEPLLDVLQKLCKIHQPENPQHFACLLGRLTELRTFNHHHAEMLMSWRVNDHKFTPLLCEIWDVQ

Mus musculus [3] = assay: Antidiabetic activity in diet-induced obese mouse assessed as change in body weight at 30 mg/kg, po for 4 weeks measured after 3 weeks (reference value: 29.6+/-0.9 g); type: functional
[4] = Oral bioavailability in mouse; type: ADME, organism-based; settings: in vivo
[5] = Half life in iv dosed cynomolgus monkey; type: ADME, organism-based, Macaca fascicularis; settings: in vivo
Mus musculus [6] = assay: Antidiabetic activity in diet-induced obese mouse assessed as triglyceride level at 10 mg/kg, po for 4 weeks (reference value: 54.4 +/-1.5 mg/dL); type: functional
Mus musculus [7] = assay: Antidiabetic activity in diet-induced obese mouse assessed as serum glucose level at 30 mg/kg, po for 4 weeks (reference value: 316.5 +/-13.2 mg/dL); type: functional
Homo sapiens [8] = species on record: Homo sapiens; assay: Selectivity ratio of EC50 for human FXR to EC50 for human LXRalpha
Bile acid receptor [9] = target: T2, Bile acid receptor (Homo sapiens, UniProt Q96RI1); assay: Agonist activity at human FXR LBD assessed as SRC1 peptide recruitment by FRET assay; type: functional
T2 sequence (Q96RI1 whole entry): T1 sequence (whole entry)

Mus musculus [10] = assay: Antidiabetic activity in diet-induced obese mouse assessed as beta-hydroxybutyrate level at 30 mg/kg, po for 4 weeks (reference value: 1.7 +/-0.1 mg/dL); type: functional
Mus musculus [11] = assay: Antidiabetic activity in diet-induced obese mouse assessed as change in body weight at 10 mg/kg, po for 4 weeks measured after 3 weeks (reference value: 30.3+/-0.8 g); type: functional
[12] = Volume of distribution at steady state in iv dosed mouse; type: ADME, organism-based; settings: in vivo, read-out: Vdss
Rattus norvegicus = assay: Dose normalized AUC in orally dosed rat; type: ADME, organism-based; settings: in vivo, po
Homo sapiens [13] = species on record: Homo sapiens; assay: Selectivity ratio of EC50 for human FXR to EC50 for human PXR
Mus musculus [14] = assay: Antidiabetic activity in diet-induced obese mouse assessed as change in body weight at 10 mg/kg, po for 4 weeks measured after 4 weeks (reference value: 30.3+/-0.8 g); type: functional
Cytochrome P450 2C19 = Cytochrome P450 2C19 (Homo sapiens, UniProt P33261); assay: Inhibition of CYP2C19 in human liver microsome; type: microsomes
[15] = Solubility of compound in fasted state-simulated intestinal fluid at pH 6.5; type: physicochemical; settings: simulated gi fluid
Mus musculus [16] = assay: Antidiabetic activity in diet-induced obese mouse assessed as NEFA level at 10 mg/kg, po for 4 weeks (reference value: 0.46 +/-0.02 mEq/dL); type: functional
[17] = target: T1, Bile acid receptor (Homo sapiens); assay: Binding affinity to human FXR by X-ray crystallography
Mus musculus [18] = assay: Antidiabetic activity in diet-induced obese mouse assessed as change in body weight at 30 mg/kg, po for 4 weeks measured after 2 weeks (reference value: 29.6+/-0.9 g); type: functional
[19] = Volume of distribution at steady state in iv dosed cynomolgus monkey; type: ADME, organism-based, Macaca fascicularis; settings: in vivo, read-out: Vdss
Homo sapiens [20] = species on record: Homo sapiens; assay: Selectivity ratio of EC50 for human FXR to EC50 for human LRH
Mus musculus [21] = assay: Antidiabetic activity in diet-induced obese mouse assessed as serum insulin level at 10 mg/kg, po for 4 weeks (reference value: […]); type: functional
Mus musculus [22] = assay: Antidiabetic activity in diet-induced obese mouse assessed as total cholesterol level at 10 mg/kg, po for 4 weeks (reference value: 140.0 +/-2.8 mg/dL); type: functional
Mus musculus [23] = assay: Antidiabetic activity in diet-induced obese mouse assessed as change in body weight at 10 mg/kg, po for 4 weeks measured after 2 weeks (reference value: 30.3+/-0.8 g); type: functional
Mus musculus [24] = assay: Antidiabetic activity in diet-induced obese mouse assessed as change in body weight at 100 mg/kg, po for 4 weeks measured after 4 weeks (reference value: 29.1+/-0.8 g); type: functional
[25] = Oral bioavailability in cynomolgus monkey; type: ADME, organism-based, Macaca fascicularis; settings: in vivo
Cytochrome P450 2D6 = Cytochrome P450 2D6 (Homo sapiens, UniProt P10635); assay: Inhibition of CYP2D6 in human liver microsome; type: microsomes
Mus musculus [26] = assay: Antidiabetic activity in diet-induced obese mouse assessed as beta-hydroxybutyrate level at 100 mg/kg, po for 4 weeks (reference value: 1.7 +/-0.1 mg/dL); type: functional
Mus musculus [27] = assay: Antidiabetic activity in diet-induced obese mouse assessed as glycerol level at 30 mg/kg, po for 4 weeks (reference value: 11.0 +/-1.3 mg/dL); type: functional
Homo sapiens [28] = species on record: Homo sapiens; assay: Selectivity ratio of EC50 for human FXR to EC50 for human PPARdelta
Mus musculus [29] = assay: Antidiabetic activity in diet-induced obese mouse assessed as NEFA level at 100 mg/kg, po for 4 weeks (reference value: 0.46 +/-0.02 mEq/dL); type: functional
Cytochrome P450 2C9 = Cytochrome P450 2C9 (Homo sapiens, UniProt P11712); assay: Inhibition of CYP2C9 in human liver microsome; type: microsomes
[30] = Oral bioavailability in rat; type: ADME, organism-based; settings: in vivo
Bile acid receptor [31] = target: T2, Bile acid receptor; assay: Agonist activity at human FXR LBD iexpressed in monkey CV-1 cells assessed as transactivation of luciferase reporter gene expression; type: functional, cell-based
[32] = Clearance in iv dosed mouse; type: ADME, organism-based; settings: in vivo
Mus musculus [33] = assay: Antidiabetic activity in diet-induced obese mouse assessed as triglyceride level at 30 mg/kg, po for 4 weeks (reference value: 54.4 +/-1.5 mg/dL); type: functional
Mus musculus [34] = assay: Antidiabetic activity in diet-induced obese mouse assessed as change in body weight at 100 mg/kg, po for 4 weeks measured after 3 weeks (reference value: 29.1+/-0.8 g); type: functional
[35] = Half life in iv dosed Beagle dog; type: ADME, organism-based, Canis lupus familiaris; settings: in vivo
Mus musculus [36] = assay: Antidiabetic activity in diet-induced obese mouse assessed as glycerol level at 10 mg/kg, po for 4 weeks (reference value: 11.0 +/-1.3 mg/dL); type: functional
Cynomolgus monkey = assay: Dose normalized AUC in orally dosed cynomolgus monkey; type: ADME, organism-based, Macaca fascicularis; settings: in vivo, po

Chain of Cytochrome P450 2C19 (P33261 whole entry): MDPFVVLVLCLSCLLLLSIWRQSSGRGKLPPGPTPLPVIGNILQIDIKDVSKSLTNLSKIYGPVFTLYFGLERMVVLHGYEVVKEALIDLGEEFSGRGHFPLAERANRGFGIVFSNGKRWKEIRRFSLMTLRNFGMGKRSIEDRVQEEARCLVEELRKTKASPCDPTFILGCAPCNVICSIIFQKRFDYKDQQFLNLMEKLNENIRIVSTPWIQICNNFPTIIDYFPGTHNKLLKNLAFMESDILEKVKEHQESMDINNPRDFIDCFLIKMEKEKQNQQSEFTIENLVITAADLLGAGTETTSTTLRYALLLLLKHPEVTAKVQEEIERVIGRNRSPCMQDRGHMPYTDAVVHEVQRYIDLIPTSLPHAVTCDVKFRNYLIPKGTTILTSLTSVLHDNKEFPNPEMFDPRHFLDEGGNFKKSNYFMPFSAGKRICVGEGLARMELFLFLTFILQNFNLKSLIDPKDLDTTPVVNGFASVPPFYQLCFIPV
Chain of Cytochrome P450 2C9 (P11712 whole entry): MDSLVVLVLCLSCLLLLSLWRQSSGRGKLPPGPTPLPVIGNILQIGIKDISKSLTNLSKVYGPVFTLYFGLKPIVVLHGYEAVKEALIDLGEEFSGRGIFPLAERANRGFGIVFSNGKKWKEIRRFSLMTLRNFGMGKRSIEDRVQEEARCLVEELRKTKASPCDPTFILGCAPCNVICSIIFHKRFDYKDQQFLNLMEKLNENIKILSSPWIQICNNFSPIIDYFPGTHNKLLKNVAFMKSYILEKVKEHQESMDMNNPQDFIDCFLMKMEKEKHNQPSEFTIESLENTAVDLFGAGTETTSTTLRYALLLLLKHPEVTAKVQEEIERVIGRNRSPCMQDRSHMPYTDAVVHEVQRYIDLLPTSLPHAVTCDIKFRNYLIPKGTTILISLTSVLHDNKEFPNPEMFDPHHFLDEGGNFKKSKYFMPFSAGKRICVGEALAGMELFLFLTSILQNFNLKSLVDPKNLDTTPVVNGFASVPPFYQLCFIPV
Chain of Cytochrome P450 2D6 (P10635 whole entry): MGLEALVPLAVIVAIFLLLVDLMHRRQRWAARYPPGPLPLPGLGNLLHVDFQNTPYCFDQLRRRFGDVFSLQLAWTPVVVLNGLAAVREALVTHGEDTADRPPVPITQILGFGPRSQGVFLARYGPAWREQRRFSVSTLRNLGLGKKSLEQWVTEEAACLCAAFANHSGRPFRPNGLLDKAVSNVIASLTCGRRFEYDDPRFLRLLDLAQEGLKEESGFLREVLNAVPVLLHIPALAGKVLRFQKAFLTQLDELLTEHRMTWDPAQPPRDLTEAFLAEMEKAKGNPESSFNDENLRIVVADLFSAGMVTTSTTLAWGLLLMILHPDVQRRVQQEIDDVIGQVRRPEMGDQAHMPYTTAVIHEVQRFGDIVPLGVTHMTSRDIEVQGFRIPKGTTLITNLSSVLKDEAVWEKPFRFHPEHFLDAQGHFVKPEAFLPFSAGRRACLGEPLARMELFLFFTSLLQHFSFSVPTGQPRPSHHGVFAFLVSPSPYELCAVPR

In the case of CC(C)c1onc(-c2c(Cl)cccc2Cl)c1COc1ccc(-c2ccc3nc(C(=O)O)ccc3c2)cc1, the Activity (Mus musculus [1]) was 241.4 mg/dL, the Activity [2] was 102% and the Activity (Mus musculus [3]) was 27.5 g. For the same molecule, the bioavailability [4] was 42%, the half-life [5] was 2 h and the Activity (Mus musculus [6]) was 55.8 mg/dL. The Activity (Mus musculus [7]) was 282.2 mg/dL, the Ratio EC50 (Homo sapiens [8]) was 100 and the pEC50 (Bile acid receptor [9]) was 6.92. The Activity (Mus musculus [10]) was 1.8 mg/dL, the Activity (Mus musculus [11]) was 29 g and the Vd [12] was 1.6 L/kg. The AUC (Rattus norvegicus) was 130 ng·kg·h/mg/mL, the Ratio EC50 (Homo sapiens [13]) was 100 and the Activity (Mus musculus [14]) was 29 g. For the same molecule, the pIC50 (Cytochrome P450 2C19) was < 4.48, the solubility [15] was 1 ng/mL (≈ 1.87 nM) and the Activity (Mus musculus [16]) was 0.53 mEq/dL. The Activity [17] was “Active”, the Activity (Mus musculus [18]) was 27.8 g and the Vd [19] was 0.15 L/kg. It also gave a Ratio EC50 (Homo sapiens [20]) of 100, an Activity (Mus musculus [21]) of 0.63 ng/mL and an Activity (Mus musculus [22]) of 108.5 mg/dL. It also gave an Activity (Mus musculus [23]) of 29.3 g, an Activity (Mus musculus [24]) of 25.6 g and a bioavailability [25] of 15%. The pIC50 (Cytochrome P450 2D6) was < 4.48, the Activity (Mus musculus [26]) was 3.3 mg/dL and the Activity (Mus musculus [27]) was 10 mg/dL. It also gave a Ratio EC50 (Homo sapiens [28]) of 100, an Activity (Mus musculus [29]) of 0.65 mEq/dL and a pIC50 (Cytochrome P450 2C9) of 5.36. The bioavailability [30] was 23%, the pEC50 (Bile acid receptor [31]) was 7.30 and the clearance [32] was 1.38 L/h/kg. For the same molecule, the Activity (Mus musculus [33]) was 51.1 mg/dL, the Activity (Mus musculus [34]) was 24.1 g and the half-life [35] was 1.83 h. For the same molecule, the Activity (Mus musculus [36]) was 10.8 mg/dL and the AUC (Cynomolgus monkey) was 850 ng·kg·h/mg/mL.

Reference: ChEMBL document CHEMBL1671792, “Conformationally constrained farnesoid X receptor (FXR) agonists: heteroaryl replacements of the naphthalene” (Bioorg Med Chem Lett, 2011)
